Measured values: patent publication US20240158379A1, “NOVEL BENZOFURAN, BENZOTHIOPHENE, AND INDOLE ANALOGS THAT INHIBIT THE FORMATION OF TAU OLIGOMERS AND THEIR METHOD OF USE” (OLIGOMERIX INC., priority 2016, published 2024)

Target: recombinant human tau 4R2N (Homo sapiens (Human), UniProt P10636)
Test: AlphaLisa Assay (ALA), primary screen for inhibition of tau oligomer formation
Format: biochemical
Conditions: tau target 300 nM, Tris-HCl pH 7.4, 4 hours room temperature, compound 0.098 uM-50 uM
Source text: Bacterial recombinant human tau 4R2N (the largest isoform of tau in the central nervous system, 441 amino acids in length, Seq ID 1) constructs with either 6×-His or StrepII N-terminal epitope tags were purified from bacterial lysate using denaturing conditions to prepare tau in its monomeric form.
ALA Assay: AlphaLisa Assay (ALA) was used as a primary screen for identifying compounds that inhibit tau oligomer formation. It is a bead based assay that only gives signal when the beads are in close proximity to each other. When the tau monomer (target) is incubated it forms higher order aggregates (dimer, trimer, tetramer, etc) so that when the donor and acceptor beads bind to the epitope tags of tau they are in close proximity and generate signal.
Tau target (equal mixture of each construct at 300 nM) was prepared in buffer (Tris-HCl pH 7.4) and was incubated in 96-well plates at room temperature for 4 hours with vehicle control (DMSO) and a dose range of a compound of the disclosure (0.098 uM-50 uM). AlphaLisa acceptor beads & donor beads with ligands to the epitope tags (Perkin Elmer) were diluted (final 20 ug/mL per bead) in bead buffer (25 mM HEPES pH 7.4, 100 mM NaCl, 0.1% Tween-20), added to the wells and incubated 1 hour at room temperature. The positive control (non-incubated target) & blank (no tau) were prepared and mixed with beads in bead buffer and the plate was read immediately using the EnVision plate reader (Perkin Elmer).

recombinant human tau 4R2N, sequence (P10636 other isoform, or with tags, fused parts or gaps): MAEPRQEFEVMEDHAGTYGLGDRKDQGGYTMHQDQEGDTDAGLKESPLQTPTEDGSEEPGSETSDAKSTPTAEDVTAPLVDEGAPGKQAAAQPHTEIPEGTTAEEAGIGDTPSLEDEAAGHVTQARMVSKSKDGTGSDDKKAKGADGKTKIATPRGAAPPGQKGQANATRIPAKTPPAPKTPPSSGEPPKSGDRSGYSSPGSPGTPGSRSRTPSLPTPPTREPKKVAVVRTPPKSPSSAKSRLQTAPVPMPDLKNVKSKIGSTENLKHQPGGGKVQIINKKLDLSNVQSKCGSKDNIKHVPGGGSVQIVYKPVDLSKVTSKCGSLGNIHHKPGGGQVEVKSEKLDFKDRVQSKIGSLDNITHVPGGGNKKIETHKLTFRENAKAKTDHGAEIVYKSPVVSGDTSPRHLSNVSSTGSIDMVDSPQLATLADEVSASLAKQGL

## CC(=O)CCc1oc2ccc(-c3ccc(Cl)nc3)cc2c1-c1ccc(Cl)s1 [Example 20, 4-(5-(6-Chloropyridin-3-yl)-3-(5-chlorothiophen-2-yl)benzofuran-2-yl)butan-2-one]
  IC50: 15.4 µM

## CC(=O)CCc1oc2cc(Br)ccc2c1-c1ccc(C)o1 [Example 21, 4-(6-Bromo-3-(5-methylfuran-2-yl)benzofuran-2-yl)butan-2-one]
  IC50: 1.17 µM

## CC(=O)CCc1oc2ccc(Br)cc2c1CCc1ccc(C)cc1 [Example 26, 4-(5-Bromo-3-(2-p-tolylethyl)benzofuran-2-yl)butan-2-one]
  IC50: > 10 µM

## CC(=O)CCc1oc2ccc(Br)cc2c1CCC(C)C [Example 9, 4-[5-Bromo-3-(3-methyl-butyl)-benzofuran-2-yl]-butan-2-one]
  IC50: > 10 µM

## CC(=O)CCc1oc2ccc(-c3ccncc3)cc2c1-c1ccc(Cl)s1 [Example 18, 4-(3-(5-Chlorothiophen-2-yl)-5-(pyridin-4-yl)benzofuran-2-yl)butan-2-one]
  IC50: 7.67 µM

## Cc1ccc(-c2c(CCC(=O)O)oc3ccc(Br)cc23)o1 [Example 12, 3-[5-Bromo-3-(5-methyl-furan-2-yl)-benzofuran-2-yl]-propionic acid]
  IC50: 6.09 µM

## CC(=O)CCc1oc2cc(-c3ccncc3)ccc2c1-c1ccc(C)o1 [Example 22, 4-(3-(5-Methylfuran-2-yl)-6-(pyridin-4-yl)benzofuran-2-yl)butan-2-one]
  IC50: 3.42 µM

## Cc1ccc(-c2c(CCC(=O)N3CCC(O)CC3)oc3ccc(Br)cc23)o1 [Example 13, 3-[5-Bromo-3-(5-methyl-furan-2-yl)-benzofuran-2-yl]-1-(4-hydroxy-piperidin-1-yl)-propan-1-one]
  IC50: 5.78 µM

## CC(=O)CCc1oc2ccc(-c3cccs3)cc2c1-c1ccc(C)o1 [Example 8, 4-(3-(5-Methylfuran-2-yl)-5-(thiophen-2-yl)benzofuran-2-yl)butan-2-one]
  IC50: 1.31 µM

## COc1cc(-c2ccc3oc(CCC(C)=O)c(-c4ccc(Cl)s4)c3c2)ccn1 [Example 19, 4-(3-(5-chlorothiophen-2-yl)-5-(2-methoxypyridin-4-yl)benzofuran-2-yl)butan-2-one]
  IC50: 20.8 µM

## COc1ccc(-c2ccc3c(-c4ccc(C)o4)c(CCC(C)=O)oc3c2)cn1 [Example 28, 4-(6-(6-Methoxypyridin-3-yl)-3-(5-methylfuran-2-yl)benzofuran-2-yl)butan-2-one]
  IC50: 2.48 µM
